Several values for one entry are separate records, joined by “and”; a condition that tells them apart may be missing. Equal entries are not always repeated.
Test system: HT1080 xenograft
Assay: In vivo efficacy study in the HT1080 xenograft model in BALB/c nude mice (Example 6)
Details: for Tumor volume, day 0 / Tumor volume, day 2 / Tumor volume, day 4 / Tumor volume, day 6 / Tumor volume, day 9 / T/C (%) / TGI (%) / Tumor volume, day 11: iv, qw; for Tumor volume, day 0: day 0 after the start of treatment; for Tumor volume, day 0 / Tumor volume, day 2 / Tumor volume, day 4 / Tumor volume, day 6 / Tumor volume, day 9 / Tumor volume, day 11: mean ± SEM; for T/C (%) / TGI (%) / Tumor volume, day 11: day 11
Method: • Species: Mus Musculus • Strain: BALB/c nude • Age: 6-8 weeks • Sex: female • Body weight: 18-22 g • Number of animals: 35 mice plus spare • Animal supplier: Shanghai Lingchang Biotechnology Experimental Animal Co., LTD. Housing Condition • The mice were kept in individual ventilation cages at constant temperature and humidity with 5 animals in each cage. • Temperature: 20˜26° C. • Humidity 40-70%. • Cages: Made of polycarbonate. The size is 375 mm×215 mm×180 mm.
The HT1080 cells were maintained in EMEM medium supplemented with 10% heat inactivated fetal bovine serum at 37° C. in an atmosphere of 5% CO2 in air. The tumor cells were routinely sub-cultured twice weekly. The cells growing in an exponential growth phase were harvested and counted for tumor inoculation.
Each mouse was inoculated subcutaneously at the right flank with HT1080 tumor cells (5×10^6) in 0.2 ml of PBS for tumor development. Animals were randomized when the average tumor volume reached 320 mm^3 for efficacy study. The test article administration and the animal numbers in each group were shown in the experimental design table.
All the procedures related to animal handling, care and the treatment in the study were performed according to the guidelines approved by the Institutional Animal Care and Use Committee (IACUC) of WuXi AppTec, following the guidance of the Association for Assessment and Accreditation of Laboratory Animal Care (AAALAC). At the time of routine monitoring, the animals were checked for any effects of tumor growth and treatments on normal behavior such as mobility, food and water consumption (by observation only), body weight gain/loss, eye/hair matting and any other abnormal effect as stated in the protocol. Death and observed clinical signs were recorded on the basis of the numbers of animals within each subset.
The major endpoint was to see if the tumor growth could be delayed or mice could be cured. Tumor volume was measured three times weekly in two dimensions using a caliper, and the volume was expressed in mm^3 using the formula: V=0.5 a×b^2 where a and b are the long and short diameters of the tumor, respectively. The tumor size was then used for calculations of T/C value. The T/C value (in percent) is an indication of antitumor effectiveness; T and C are the mean volumes of the treated and control groups, respectively, on a given day.
TGI was calculated for each group using the formula: TGI (%)=[1−(Ti−T0)/(Vi−Vo)]×100; Ti is the average tumor volume of a treatment group on a given day, T0 is the average tumor volume of the treatment group on the day of treatment start, Vi is the average tumor volume of the vehicle control group on the same day with Ti, and V0 is the average tumor volume of the vehicle group on the day of treatment start.
Summary statistics, including mean and the standard error of the mean (SEM), were provided for the tumor volume of each group at each time point.
Statistical analysis of difference in tumor volume among the groups was conducted on the data obtained at the best therapeutic time point after the final dose.
A one-way ANOVA was performed to compare tumor volume among groups, and when a significant F-statistics (a ratio of treatment variance to the error variance) was obtained, comparisons between groups were carried out with Games-Howell test. A two-tailed T test was performed to compare tumor volume between two groups. All data were analyzed using GraphPad 5.0. P<0.05 was considered to be statistically significant.

[1] = 7 animals of group 5 and 6 treated with BCY10984 45 μM, average starting tumor size 1291 mm^3

CC[C@H](C)[C@@H]([C@@H](CC(=O)N1CCC[C@H]1[C@H](OC)[C@@H](C)C(=O)N[C@H](C)[C@@H](O)c1ccccc1)OC)N(C)C(=O)[C@@H](NC(=O)[C@H](C(C)C)N(C)C(=O)OCc1ccc(NC(=O)[C@H](CCCNC(N)=O)NC(=O)[C@H](Cc2cccc3ccccc23)NC(=O)[C@H](CCC(=O)O)NC(=O)Cn2cc(CCC(=O)NCCC(=O)N(C)CC(=O)N(C)CC(=O)N(C)CC(=O)N(C)CC(=O)N(C)CC(=O)N(C)CC(=O)N(C)CC(=O)N(C)CC(=O)N(C)CC(=O)N(C)CC(=O)N[C@@H](C)C(=O)N[C@H]3CN(C)Cc4cc5cc(c4)CN(C)C[C@@H](C(N)=O)NC(=O)[C@H](C(C)(C)C)NC(=O)[C@H](CC(=O)O)NC(=O)[C@H](Cc4ccc(O)cc4)NC(=O)[C@H](Cc4ccccc4)NC(=O)[C@H](CC(=O)O)NC(=O)[C@H](CCC(=O)O)NC(=O)[C@H](CSC5)NC(=O)[C@@H](C)NC(=O)[C@H](Cc4cccc5ccccc45)NC(=O)[C@H](CCC(=O)O)NC(=O)[C@H](CC(N)=O)NC(=O)[C@@H](C)NC3=O)nn2)cc1)C(C)C [BCY10984, MMAE-PAB-(Cit-1Nal-Glu)-BCY3900]
anti-tumor efficacy compared with BCY12951 (5 μM): comparable anti-tumor efficacy | anti-tumor activity (5 μM, 15 μM and 45 μM qw): dose-dependent anti-tumor activity | Tumor volume, day 0 (5 μM): 320 ± 48 mm^3 | Tumor volume, day 2 (5 μM): 508 ± 49 mm^3 | Tumor volume, day 4 (5 μM): 681 ± 64 mm^3 | Tumor volume, day 6 (5 μM): 750 ± 50 mm^3 | Tumor volume, day 9 (5 μM): 958 ± 53 mm^3 | T/C (%) (5 μM): 72.6% | TGI (%) (5 μM): 33.6% | Tumor volume, day 11 (5 μM): 1257 mm^3 and 1257 ± 95 mm^3 | anti-tumor efficacy compared with BCY12951 at the same molar dosage (15 μM and 45 μM): more potent efficacy | Tumor volume, day 0 (15 μM): 321 ± 43 mm^3 | Tumor volume, day 2 (15 μM): 519 ± 76 mm^3 | Tumor volume, day 4 (15 μM): 428 ± 88 mm^3 | Tumor volume, day 6 (15 μM): 378 ± 128 mm^3 | Tumor volume, day 9 (15 μM): 304 ± 112 mm^3 | T/C (%) (15 μM): 16.6% | TGI (%) (15 μM): 102.3% | Tumor volume, day 11 (15 μM): 288 mm^3 and 288 ± 126 mm^3 | tumor eradication (45 μM qw): eradicated the tumors completely on day 16 | Tumor volume, day 0 (45 μM): 320 ± 32 mm^3 | Tumor volume, day 2 (45 μM): 489 ± 68 mm^3 | Tumor volume, day 4 (45 μM): 285 ± 90 mm^3 | Tumor volume, day 6 (45 μM): 139 ± 46 mm^3 | Tumor volume, day 9 (45 μM): 29 ± 10 mm^3 | T/C (%) (45 μM): 0.9% | TGI (%) (45 μM): 121.6% | Tumor volume, day 11 (45 μM): 15 mm^3 and 15 ± 6 mm^3 | tumor response after the first dosing [1]: sudden tumor regression | tumor response after the second dosing [1]: all tumors were eradicated completely | tumor growth (FIG. 17) (mice from Group 5 and 6 dosed with 45 μM BCY10984): potent inhibition of tumor growth
